US6573246B1, “Modified ether glyceroglycolipids” (The Liposome Company, Inc., priority 1995, dated 2003)

Legend:
[1] = tested on: MCF-7 (breast adenocarcinoma) cells; test: growth inhibition of MCF-7 cells in culture; type: cell-based, human; settings: MCF7; mean ± standard deviation; read-out: Gl50 (concentration of lipid required to inhibit the growth of fifty percent of the cells in culture)
Experimental: (§1) Human epithelial cancer cell lines were grown from frozen stocks originally obtained from the ATCC, in media commonly used for growing these cells in culture. For example, A549 cells (non-small cell lung adenocarcinoma) were cultured in Ham's F-12 medium, T84 cells (colon carcinoma) were cultured in a 1:1 mixture of F-12 and DMEM while MCF-7 (breast adenocarcinoma) and A427 (large cell lung carcinoma) cells were cultured in DMEM. The media were supplemented with 10% fetal bovine serum, penicillin (50 U/ml), streptomycin (50 micogram/ml) and fungizone (0.5 microgram/ml). OVCAR-3 cells (ovarian adenocarcinoma) were cultured in RPMI 1640 medium supplemented with 20% FBS and 10 microgram/ml insulin.
(§2) Cells were subcultured into 24-well plates and the cell number was monitored daily. When the cells were in log phase, the media was replaced with one containing the required drug concentration, and the cells were incubated for 72 h. The increase in cell numbers relative to control wells (without any drug) was determined after the incubation. Stock solutions of the drugs ([…]) were prepared in ethanol and stored at −20 deg. C. Etherlipid solutions (30 micromolar) in the appropriate media were prepared fresh on the day of the experiment and serially diluted to give the required concentrations. The final concentration of ethanol in all wells was 0.1% (v/v).
(§3) Gl50 values are given as the mean ± standard deviation; the Gl50 value from each experiment “n” was generated from three individual wells on two separate plates (six total wells); n=1 for compounds 3-6; n=2 for most cell lines treated with compound 2 ^an=3; ^bn=2; ^cn=6; ^dn=8.

[2] = tested on: A549 cells (non-small cell lung adenocarcinoma); test: growth inhibition of A549 cells in culture; type: cell-based, human; settings: mean ± standard deviation, read-out: Gl50 (concentration of lipid required to inhibit the growth of fifty percent of the cells in culture)
Experimental: as §1, §2, §3

L1210 cells = test: growth inhibition of L1210 cells in culture; type: cell-based; settings: mean ± standard deviation, read-out: Gl50 (concentration of lipid required to inhibit the growth of fifty percent of the cells in culture)
Experimental: (§4) The Gl50 values for edelfosine (1), 2′-deoxy-β-D-arabinopyranosyl (2), 2′-deoxy-α-D-arabinopyranosyl (3), 2-O-methyl-β-D-glucopyranosyl (4), 2′-O-methyl-β-D-mannopyranosyl (5) and α-D-mannopyransoyl (6) on A-549, MCF-7, Lewis Lung, MCF-7/Adr (adriamycin-resistant), P388, P-388/Adr, L1210 and L1210/vmdr cells were determined and are set forth below (see Table 4) as the concentration (micromolar) of lipid required to inhibit the growth of fifty percent of the cells in culture.
as §3

HT29 cells = test: growth inhibition of HT29 cells in culture; type: cell-based; settings: mean ± standard deviation, read-out: Gl50 (concentration of lipid required to inhibit the growth of fifty percent of the cells in culture)
L1210/vmdr cells = test: growth inhibition of L1210/vmdr cells in culture; type: cell-based; settings: mean ± standard deviation, read-out: Gl50 (concentration of lipid required to inhibit the growth of fifty percent of the cells in culture)
Experimental: as §4, §3

[3] = tested on: MCF-7/Adr (adriamycin-resistant) cells; test: growth inhibition of MCF7/adr cells in culture; type: cell-based, human; settings: mean ± standard deviation, read-out: Gl50 (concentration of lipid required to inhibit the growth of fifty percent of the cells in culture)
Experimental: as §4, §3

P388 cells = test: growth inhibition of P388 cells in culture; type: cell-based, murine; settings: mean ± standard deviation, read-out: Gl50 (concentration of lipid required to inhibit the growth of fifty percent of the cells in culture)
Experimental: as §4, §3

P-388/Adr cells = test: growth inhibition of P388/adr cells in culture; type: cell-based, murine; settings: mean ± standard deviation, read-out: Gl50 (concentration of lipid required to inhibit the growth of fifty percent of the cells in culture)
Experimental: as §4, §3

Lewis Lung cells = test: growth inhibition of Lewis Lung cells in culture; type: cell-based, murine; settings: mean ± standard deviation, read-out: Gl50 (concentration of lipid required to inhibit the growth of fifty percent of the cells in culture)
Experimental: as §4, §3

SMILES | IC50 [1] [µM] | IC50 [2] [µM] | IC50 (L1210 cells) [µM] | IC50 (HT29 cells) [µM] | IC50 (L1210/vmdr cells) [µM] | IC50 [3] [µM] | IC50 (P388 cells) [µM] | IC50 (P-388/Adr cells) [µM] | IC50 (Lewis Lung cells) [µM]
CCCCCCCCCCCCCCCCOC[C@H](CO[C@@H]1C[C@H](O)[C@H](O)CO1)OC [compound 3, 1-O-Hexadecyl-2-O-methyl-3-O-(2′-deoxy-α-D-arabinopyransoyl)-sn-glycerol] | 24.4 ± 0.64 | 19.65 ± 0.07 | 18.8 ± 0.49 | 29.6 ± 0.28 | 26.9 ± 1.06 | 24.4 ± 0.42 |  |  | 
CCCCCCCCCCCCCCCCOC[C@H](CO[C@@H]1O[C@H](CO)[C@@H](O)[C@H](O)[C@H]1OC)OC [compound 4, 1-O-Hexadecyl-2-O-methyl-3-O-(2′-methyl-β-D-glucopyransoyl)-sn-glycerol] | 23.1 ± 0.64 | 18.3 ± 0.14 |  |  |  | 21.8 ± 0.63 | 18.1 ± 1.13 | 29.3 ± 5.66 | 26 ± 0.71
CCCCCCCCCCCCCCCCOC[C@H](CO[C@H]1O[C@H](CO)[C@@H](O)[C@H](O)[C@@H]1OC)OC [compound 5, 1-O-Hexadecyl-2-O-methyl-3-O-(2′-O-methyl-α-D-mannopyransoyl)-sn-glycerol] | 18.2 | 15.55 ± 0.07 | 15.5 ± 0.35 | 20 ± 0.28 | 16.5 ± 1.13 | 18.55 ± 0.07 |  |  | 
CCCCCCCCCCCCCCCCOC[C@H](CO[C@H]1O[C@H](CO)[C@@H](O)[C@H](O)[C@@H]1O)OC [compound 6, 1-O-Hexadecyl-2-O-methyl-3-O-(α-D-mannopyransoyl)-sn-glycerol] | 21.7 ± 0.57 | 18.1 ± 0.14 | 16.2 ± 0.99 | 23.2 ± 0.85 | 18.9 | 23.3 ± 0.71 |  |  | 
